Laboratory results published in patent publication US11576922B2, “CD73 inhibitors” (ORIC Pharmaceuticals, Inc., priority 2017, dated 2023).
pIC50: −log10 of the molar value.

biological target: T1, CD73 (Homo sapiens, UniProt P21589); assay: Example A1: Biochemical Assay (CD73 inhibition, Malachite Green detection of AMP hydrolysis); settings: CD73 0.3208 nM, AMP 15 μM, Tris-HCl pH 7.4, Malachite Green, absorbance 620 nm; read-out: Biochemical IC50
T1 sequence (P21589 27-549): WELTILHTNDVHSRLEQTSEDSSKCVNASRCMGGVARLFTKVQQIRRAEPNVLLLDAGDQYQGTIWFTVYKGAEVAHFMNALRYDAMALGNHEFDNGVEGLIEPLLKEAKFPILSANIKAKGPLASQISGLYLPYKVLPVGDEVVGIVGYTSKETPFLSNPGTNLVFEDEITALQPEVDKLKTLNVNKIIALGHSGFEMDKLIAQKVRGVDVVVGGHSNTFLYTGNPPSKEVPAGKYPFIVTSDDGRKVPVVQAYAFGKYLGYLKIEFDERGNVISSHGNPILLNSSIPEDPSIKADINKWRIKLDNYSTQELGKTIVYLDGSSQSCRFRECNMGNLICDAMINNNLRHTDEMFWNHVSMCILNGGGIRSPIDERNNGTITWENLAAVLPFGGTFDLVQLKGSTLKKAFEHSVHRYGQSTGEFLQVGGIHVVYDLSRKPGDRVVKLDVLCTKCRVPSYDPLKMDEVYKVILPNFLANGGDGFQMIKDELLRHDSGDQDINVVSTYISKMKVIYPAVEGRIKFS
Outline: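 CD73 (0.3208 nM) preincubated 15 min at RT with compounds (10-point half-log, from 100 μM, duplicate), then 15 μM AMP for 10 min in 25 mM Tris-HCl pH 7.4, 5 mM MgCl2, 0.01% Brij-35, 0.01% BSA. Released phosphate detected by malachite green absorbance; IC50 determined.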

Row | pIC50 | Structure (SMILES)
1 | > 7.00 | CN(Cc1ccccc1)c1nc(Cl)nc2c1cnn2[C@@H]1O[C@H](COP(=O)(O)CP(=O)(O)O)C[C@H]1O [Example 47, (((((2S,4R,5R)-5-(4-(benzyl(methyl)amino)-6-chloro-1H-pyrazolo[3,4-d]pyrimidin-1-yl)-4-hydroxytetrahydrofuran-2-yl)methoxy)(hydroxy)phosphoryl)methyl) phosphonic acid]
2 | > 7.00 | O=P(O)(O)CP(=O)(O)OC[C@@H]1C[C@@H](O)[C@H](n2ncc3c(NCc4ccccc4Cl)nc(Cl)nc32)O1 [Example 48, (((((2S,4R,5R)-5-(6-chloro-4-((2-chlorobenzyl)amino)-1H-pyrazolo[3,4-d]pyrimidin-1-yl)-4-hydroxytetrahydrofuran-2-yl)methoxy)(hydroxy)phosphoryl)methyl) phosphonic acid]
3 | > 7.00 | CN(c1nc(Cl)nc2c1cnn2[C@@H]1O[C@H](COP(=O)(O)CP(=O)(O)O)[C@@H](O)[C@H]1O)[C@@H]1CCc2ccccc21 [Example 50, (((((2R,3S,4R,5R)-5-(6-chloro-4-(((R)-2,3-dihydro-1H-inden-1-yl)(methyl)amino)-1H-pyrazolo[3,4-d]pyrimidin-1-yl)-3,4-dihydroxytetrahydrofuran-2-yl)methoxy)(hydroxy)phosphoryl)methyl) phosphonic acid]

Row | Structure (SMILES) | pIC50
4 | COP(=O)(CP(=O)(O)O)OC[C@H]1O[C@@H](n2ncc3c(NCc4ccccc4Cl)nc(Cl)nc32)[C@H](O)[C@@H]1O (stereo partly drawn) [Example 49, (((((2R,3S,4R,5R)-5-(6-chloro-4-((2-chlorobenzyl)amino)-1H-pyrazolo[3,4-d]pyrimidin-1-yl)-3,4-dihydroxytetrahydrofuran-2-yl)methoxy)(methoxy)phosphoryl)methyl) phosphonic acid] | > 7.00
